Legend:
[1] = test system: Plasmodium falciparum; assay: Antimalarial activity against chloroquine and cycloguanil-resistant Plasmodium falciparum FCR-3/Gambia ring stage infected in human red blood cells assessed as inhibition of [3H]-hypoxanthine incorporation incubated 24 hrs before addition of [3H]-hypoxanthine measured after 24 hrs; type: functional, cell-based
[2] = Toxicity at human RBC assessed as haemolysis at 50 uM; type: cell-based; conditions: erythrocyte
[3] = test system: Plasmodium falciparum; assay: Ratio of cycloguanil IC50 to compound IC50 for chloroquine and cycloguanil-resistant Plasmodium falciparum FCR-3/Gambia; type: functional

Row | SMILES | IC50 [1] [µM] | Activity [2] | Ratio IC50 [3]
1 | CC1(C)N=C(N)N=C(NCCc2ccc(Cl)cc2)N1.Cl | 16.6 | Non-toxic | 
2 | Cl.NC1=NC(c2ccc([N+](=O)[O-])cc2)NC(NCCCOc2ccc(Cl)cc2)=N1 (stereo unspecified) | 7.39 | Non-toxic | 
3 | CC1(C)N=C(N)N=C(NCCCOc2ccc(Cl)cc2)N1.Cl | 11.3 | Non-toxic | 
4 | Cl.NC1=NC(c2ccco2)NC(NCCCOc2ccc(Cl)cc2)=N1 (stereo unspecified) | 0.99 | Non-toxic | 5
5 | Cl.NC1=NC(c2ccccc2)NC(NCCCOc2ccc(Cl)c(Cl)c2)=N1 (stereo unspecified) | 6.73 | Non-toxic | 
6 | Cl.NC1=NC(c2ccccc2)NC(NCCCSc2ccc(Cl)cc2)=N1 (stereo unspecified) | 1.3 | Non-toxic | 5
7 | COc1ccc(OCCCNC2=NC(N)=NC(c3ccccc3)N2)cc1.Cl (stereo unspecified) | 12.3 | Non-toxic | 
8 | Cl.NC1=NC(c2ccccc2)NC(NCCCCOc2ccc(Cl)cc2)=N1 (stereo unspecified) | 2.71 | Non-toxic | 5
9 | Cl.NC1=NC(c2ccc(C(F)(F)F)cc2)NC(NCCCOc2ccc(Cl)cc2)=N1 (stereo unspecified) | 5.54 | Non-toxic | 
10 | Cl.NC1=NC(c2ccccc2)NC(NCCCOc2c(Cl)cc(Cl)cc2Cl)=N1 (stereo unspecified) | 4.32 | Non-toxic | 
11 | Cl.NC1=NC(c2ccccc2)NC(NCCCOc2ccccc2Cl)=N1 (stereo unspecified) | 4.53 | Non-toxic | 
12 | Cl.NC1=NC(c2ccc(F)cc2)NC(NCCc2ccc(Cl)c(Cl)c2)=N1 (stereo unspecified) | 8.41 | Non-toxic | 
13 | Cl.NC1=NC2(CCCCC2)NC(NCCCOc2ccc(Cl)cc2)=N1 | 7.94 | Non-toxic | 
14 | Cl.NC1=NC(c2ccccc2Cl)NC(NCCCOc2ccc(Cl)cc2)=N1 (stereo unspecified) | 6.66 | Non-toxic | 
15 | Cl.NC1=NC(c2ccc(F)cc2)NC(NCCCOc2ccc(Cl)cc2)=N1 (stereo unspecified) | 6.21 | Non-toxic | 
16 | CC1(C)N=C(N)N=C(NCCCCOc2ccc(Cl)cc2)N1.Cl | 7.2 | Non-toxic | 
17 | Cl.NC1=NC(c2ccccc2)NC(NCCCOc2ccccc2F)=N1 (stereo unspecified) | 10.8 | Non-toxic | 
18 | Cl.NC1=NC(c2ccccc2)NC(NCCCOc2ccc(Cl)cc2)=N1 (stereo unspecified) | 7.11 | Non-toxic | 
19 | CC1(C)N=C(N)N=C(NCc2ccccc2)N1.Cl | 49.8 | Non-toxic | 
20 | CN(C)c1ccc(C2N=C(N)N=C(NCCCOc3ccc(Cl)cc3)N2)cc1.Cl (stereo unspecified) | 44.8 | Non-toxic | 
21 | COc1ccc(C2N=C(N)N=C(NCCCOc3ccc(Cl)cc3)N2)cc1.Cl (stereo unspecified) | 6.66 | Non-toxic | 
22 | CC1(C)N=C(N)N=C(NCCCSc2ccc(Cl)cc2)N1.Cl | 7.84 | Non-toxic | 
23 | Cl.NC1=NC(c2ccccc2)NC(NCCCCCOc2ccc(Cl)cc2)=N1 (stereo unspecified) | 1.36 | Non-toxic | 5
24 | Cl.NC1=NC2(CCCCC2)NC(NCc2ccccc2)=N1 | 9.89 | Non-toxic | 
25 | Cl.NC1=NC(c2ccc([N+](=O)[O-])cc2)NC(NCCc2ccc(Cl)c(Cl)c2)=N1 (stereo unspecified) | 11.1 | Non-toxic | 
26 | Cl.NC1=NC(C2CCCCC2)NC(NCCCOc2ccc(Cl)cc2)=N1 (stereo unspecified) | 4.59 | Non-toxic | 
27 | CC1(C)N=C(N)N=C(N)N1c1ccc(Cl)cc1 [CYCLOGUANIL] | 5 |  | 
28 | Cl.NC1=NC(c2ccccc2)NC(NCCCOc2ccc(Cl)cc2Cl)=N1 (stereo unspecified) | 4.52 | Non-toxic | 
29 | Cl.NC1=NC(c2ccccc2)NC(NCCCOc2ccc([N+](=O)[O-])cc2)=N1 (stereo unspecified) | 3.87 | Non-toxic | 
